Measurements from article PMC7143549, “Anticancer Activities of Meroterpenoids Isolated from the Brown Alga Cystoseira usneoides against the Human Colon Cancer Cells HT-29” (Foods, 2020).
In brackets after ≈: the same amount, converted by molar mass.

Tests used:
[1] = tested on: p-ERK1/2 in HT-29 cells; experiment: Western blot of phosphorylated ERK1/2; type: cell-based, human; settings: 24 h; 10 and 20 μg/mL
Procedure: Cells were cultured to 80% confluence at 37 °C. After 24 h of treatment with the compounds (10 and 20 µg/mL for compounds 1, 2, 5, 6, 7, and 8, and 30 and 60 µg/mL for compounds 3 and 4), HT-29 cells were rinsed twice with ice-cold PBS, and then lysed immediately in lysis buffer (250 mM NaCl, 50 mM Tris (pH 7.5), 0.5 mM EDTA, 5 mM EGTA, 8 mM MgCl2, 1 mM PMSF, 0.01 mg/mL pepstatin A, 0.01 mg/mL leupeptin, 0.01 mg/mL aprotinin, 1% Triton X-100). After centrifugation at 12,000 g for 3 min at 4°C to separate the cellular debris, the supernatant was collected and stored at −80°C until use. The protein concentrations were determined using Bio-Rad Protein Assay (BioRad, Richmond, CA, USA), according to the manufacturer’s instructions.
Equal protein content (50 μg) samples of cell lysates were separated on 10% SDS–polyacrylamide gel and transferred to polyvinylidene difluoride membranes (Hybond-P, Amershan Biosciences, Little Chalfont, UK). The membranes were blocked with 5% (w/v) non-fat dry milk in Tris-buffered saline containing 0.1% Tween-20 buffer (pH 7.4) (TBST) for 1 h at room temperature and incubated with agitation with specific antibodies: anti-pERK1/2 (Cell Signaling; 1:1000), anti-pJNK (Cell Signaling; 1:1000), anti-pAKT (Cell Signaling; 1:1000), anti-β-actin (Sigma-Aldrich; 1:500). Membranes were incubated overnight at 4°C with gentle shaking. The secondary antibody was a peroxidase-conjugated goat anti-mouse or -rabbit antibody (1:10,000; DakoCytomation, Carpinteria, CA, USA). After washing the membrane three times in TBST buffer (10 min), the signals were detected using an enhanced chemiluminescence light-detecting kit (Super-Signal West Pico Chemiluminescent Substrate, Pierce, IL, USA), according to the manufacturer’s instructions and exposed to an X-ray film (GE Healthcare Ltd., Amersham, UK). The protein band densities were analyzed and quantified with a Scientific Imaging Systems (Biophotonics ImageJ Analysis Software, National Institute of Mental Health, Bethesda, MD, USA). β-actin was used to confirm the equal loading and transfer of proteins.

[2] = tested on: HT-29 human colon carcinoma cells; experiment: Sulforhodamine B (SRB) cell viability assay, HT-29; type: cell-based; settings: for IC50: Homo sapiens, HT-29, 72 h; for IC50 / IC50 HT-29: colon cancer cells, 72 h of treatment, SRB, mean ± SE of three experiments; for Selectivity Index (SI): IC50 for normal cells CCD 841 CoN / IC50 for cancer cells HT-29
Procedure: (§1) Cell viability was quantified using the Sulforhodamine B assay described by Skehan et al.. Cells were plated with a density of 5 × 10^3 (HT-29) and 1 × 10^4 (CCD 841 CoN) cells/well and allowed to attach at 37 °C in an atmosphere with 5% CO2. After 24 h, the AMTs dissolved in DMSO were added to the cells (final concentrations of 10, 20, 30, and 50 µg/mL and less than 0.05% of DMSO) and the plates were incubated for 72 h. Then, the cells were fixed by adding 50 μL of TCA (50%) to each well and the plates were maintained for 1 h at 4 °C. The plates were washed five times with deionized water, air-dried, and stained for 30 min at room temperature with 100 μL of 0.4% (w/v) SRB prepared in 1% (v/v) acetic acid. The plates were rinsed quickly five times with 1% acetic acid to remove unbound dye, followed by air-drying. The bound dye was solubilized in 2 mM Tris base (100 μL/well) for 5 min. Optical densities were read on a microplate reader (Spectrophotometer LabsystemsMultiskan EX, λ 492 nm). Three independent assays were conducted, each one in duplicate. A standard curve was constructed for each experiment and used for converting the measured optical density values into numbers of viable cells/well. The inhibition rate was used to evaluate the cell viability and its algorithm was the following formula: ((ODcontrol − ODtreatment)/ODcontrol) × 100; OD, optical density. The OD492 for control cells was taken as 100% viability. The half maximal inhibitory concentration (IC50) was calculated. The selectivity index (SI) of each compound was calculated as IC50 of the compound against the CCD 841 CoN normal cell line/IC50 of the same compound against the HT-29 cancer cell line.

[3] = tested on: HT-29 colon cancer cells; experiment: Cell cycle analysis by flow cytometry (PI); type: cell-based, human; settings: 24 h; 30 μg/mL of 1, 2, 5, 6, 7, 8 and 90 μg/mL of 3 and 4 (Figure 4B)
Procedure: HT-29 cells (1 × 10^6 cells/well) were seeded in six-well plates and incubated for 24 h, followed by treatment with AMTs dissolved in DMSO (final concentrations of 10, 20, and 30 µg/mL for compounds 1, 2, 5, 6, 7, and 8, and 30, 60, and 90 µg/mL for compounds 3 and 4, and always below 0.05% DMSO) and 24 h of additional incubation. Colchicine (final concentration of 0.2 μg/mL) was used as positive control. The cells were then washed, harvested with trypsin, and centrifuged at 1500 rpm (5 min, 25 °C). The resulting pellet was fixed with ice-cold 70% ethanol (1 mL/10^6 cells) and the samples were stored at −4°C overnight. After fixation, the cells were washed with PBS, stained with PBS containing 5 mg/mL of RNase A, and incubated for 48 h at 4 °C. Subsequently, 50 μL of 0.1 mg/mL of IP was added and incubated for 1 h at 4 °C. The relative DNA content per cell was analyzed using a Cytomics FC500 flow cytometer (Beckman Coulter, Indianapolis, IN, USA). The data acquisition was performed with the DML program and the analysis of the acquired data with the CXP Software (Beckman Coulter, Indianapolis, IN, USA).

[4] = tested on: normal human colonic epithelial cells CCD 841 CoN; experiment: Sulforhodamine B (SRB) cell viability assay, CCD 841 CoN; type: cell-based; settings: normal colon cells, 72 h of treatment, mean ± SE of three experiments, read-out: IC50 CCD841 CoN
Procedure: as §1

IC50 [2] [µg/mL] | IC50 HT-29 [2] [µg/mL] | Compound | p-ERK1/2 level vs control [1] | Selectivity Index (SI) [2] | accumulation of cells at the G2/M phase (cell cycle arrest, words) [3] | IC50 [4] [µg/mL]
14 ± 1.33 (≈ 29.6 µM) | – | COc1c(C)cc(O)cc1/C=C/C(C)(O)CC(=O)/C=C(/C)CCCC(C)C(=O)/C=C/C(C)(C)O (centres unmarked) [Compound 7, cystodione A] | significantly reduced | >3.57 | significant | > 50
9.14 (≈ 19.3 µM) | 9.08 ± 1.04 (≈ 19.2 µM) | COc1c(C)cc(O)cc1/C=C/C(C)(O)CC(=O)/C=C(\C)CCCC(C)C(=O)/C=C/C(C)(C)O (centres unmarked) [Compound 8, cystodione B] | significantly reduced | 3.51 | not significant | 31.9 ± 7.51 (≈ 67.5 µM)

Second part, the compound before the results:

Compound | IC50 [2] [µg/mL] | IC50 HT-29 [2] [µg/mL] | p-ERK1/2 level vs control [1] | Selectivity Index (SI) [2] | accumulation of cells at the G2/M phase (cell cycle arrest, words) [3] | IC50 [4] [µg/mL]
COc1c(C)cc(O)cc1C/C=C(\C)CC(=O)/C=C(/C)CCCC(C)(O)C(=O)/C=C/C(C)(C)O (centres unmarked) [Compound 1, usneoidone Z] | 8.81 ± 1.55 (≈ 18.6 µM) | – | significantly reduced | 5.26 | significant cell cycle arrest in the G2/M | 46.4 ± 3.87 (≈ 98.2 µM)
COc1c(C)cc(O)cc1C/C=C(\C)CC(=O)/C=C(\C)CCCC(C)(O)C(=O)/C=C/C(C)(C)O (centres unmarked) [Compound 2, 11-hydroxy-1′-O-methylamentadione] | 9.14 ± 0.23 (≈ 19.3 µM) | – | significantly reduced | 2.34 | significant | 21.4 ± 2.5 (≈ 45.3 µM)
COc1c(C)cc(O)cc1C/C=C(\C)CC(=O)/C=C(\C)CCCC(C)=O [Compound 3, cystomexicone B] | 36.9 (≈ 103 µM) | 34.34 ± 1.81 (≈ 95.8 µM) | – | >1.45 | significant | > 50
